# Test results: article PMC8213057, “Targeting ALK2: An Open Science Approach to Developing Therapeutics for the Treatment of Diffuse Intrinsic Pontine Glioma” (Journal of Medicinal Chemistry, 2020)
# pIC50: −log10 of the molar value. Values joined by “and” are separate entries in the source; they are usually repeats but may differ in a detail not shown here. Equal entries are not always repeated.
# Tests used:
# JAK2 = JAK2 (Homo sapiens, UniProt O60674); assay: biochemical; details: read-out: % enzyme activity, 1 μM; Run 1, Run 2
# Chain of JAK2 (O60674 whole entry): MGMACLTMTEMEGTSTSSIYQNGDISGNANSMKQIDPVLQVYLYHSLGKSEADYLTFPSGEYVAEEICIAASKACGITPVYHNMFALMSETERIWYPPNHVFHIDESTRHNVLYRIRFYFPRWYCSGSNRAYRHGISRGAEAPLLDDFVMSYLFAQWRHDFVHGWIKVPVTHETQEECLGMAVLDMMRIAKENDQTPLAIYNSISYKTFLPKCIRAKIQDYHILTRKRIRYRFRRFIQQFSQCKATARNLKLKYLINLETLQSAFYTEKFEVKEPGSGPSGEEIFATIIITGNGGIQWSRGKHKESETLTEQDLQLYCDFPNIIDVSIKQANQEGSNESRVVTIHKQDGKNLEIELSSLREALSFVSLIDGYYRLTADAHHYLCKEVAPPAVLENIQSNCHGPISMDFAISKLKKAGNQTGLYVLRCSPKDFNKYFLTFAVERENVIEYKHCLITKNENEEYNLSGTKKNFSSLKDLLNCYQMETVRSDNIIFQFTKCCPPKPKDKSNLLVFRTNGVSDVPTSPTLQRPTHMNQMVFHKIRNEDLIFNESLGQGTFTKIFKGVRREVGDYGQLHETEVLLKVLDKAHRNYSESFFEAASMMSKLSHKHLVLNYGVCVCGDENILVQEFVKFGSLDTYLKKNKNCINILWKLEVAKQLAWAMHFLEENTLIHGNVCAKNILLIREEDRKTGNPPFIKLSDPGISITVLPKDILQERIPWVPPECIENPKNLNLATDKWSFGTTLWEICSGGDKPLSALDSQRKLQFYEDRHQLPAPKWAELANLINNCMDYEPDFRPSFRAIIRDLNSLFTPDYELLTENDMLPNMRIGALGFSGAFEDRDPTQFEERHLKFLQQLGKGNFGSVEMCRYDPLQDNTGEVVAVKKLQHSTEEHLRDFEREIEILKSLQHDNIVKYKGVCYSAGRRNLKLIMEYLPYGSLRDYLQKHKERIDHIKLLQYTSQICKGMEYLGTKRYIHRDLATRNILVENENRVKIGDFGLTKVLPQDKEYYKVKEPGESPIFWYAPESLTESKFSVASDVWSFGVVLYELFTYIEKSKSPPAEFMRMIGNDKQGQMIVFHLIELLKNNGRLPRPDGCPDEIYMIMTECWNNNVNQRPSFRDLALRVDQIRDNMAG
# DYRK1B = DYRK1B (Homo sapiens, UniProt Q9Y463); assay: biochemical; details: read-out: % enzyme activity, 1 μM; Run 1, Run 2
# Chain of DYRK1B (Q9Y463 whole entry): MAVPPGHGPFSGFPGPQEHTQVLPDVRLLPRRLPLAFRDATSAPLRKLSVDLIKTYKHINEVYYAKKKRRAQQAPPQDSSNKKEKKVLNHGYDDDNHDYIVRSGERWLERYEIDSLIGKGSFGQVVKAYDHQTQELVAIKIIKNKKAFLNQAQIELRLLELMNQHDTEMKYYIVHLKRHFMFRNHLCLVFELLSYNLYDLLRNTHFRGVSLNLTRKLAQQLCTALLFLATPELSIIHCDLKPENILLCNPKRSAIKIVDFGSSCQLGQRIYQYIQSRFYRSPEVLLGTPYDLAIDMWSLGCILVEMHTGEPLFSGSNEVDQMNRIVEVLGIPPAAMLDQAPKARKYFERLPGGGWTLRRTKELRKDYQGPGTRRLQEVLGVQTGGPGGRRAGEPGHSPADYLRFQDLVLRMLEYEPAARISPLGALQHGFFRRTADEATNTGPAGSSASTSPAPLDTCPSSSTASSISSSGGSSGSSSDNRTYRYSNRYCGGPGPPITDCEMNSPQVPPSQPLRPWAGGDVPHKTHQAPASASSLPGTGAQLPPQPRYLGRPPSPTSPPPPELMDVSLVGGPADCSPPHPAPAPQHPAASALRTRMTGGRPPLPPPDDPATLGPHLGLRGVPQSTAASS
# PYK2 = PYK2 (Homo sapiens, UniProt Q14289); details: 1 μM; Run 1, Run 2
# Chain of PYK2 (Q14289 whole entry): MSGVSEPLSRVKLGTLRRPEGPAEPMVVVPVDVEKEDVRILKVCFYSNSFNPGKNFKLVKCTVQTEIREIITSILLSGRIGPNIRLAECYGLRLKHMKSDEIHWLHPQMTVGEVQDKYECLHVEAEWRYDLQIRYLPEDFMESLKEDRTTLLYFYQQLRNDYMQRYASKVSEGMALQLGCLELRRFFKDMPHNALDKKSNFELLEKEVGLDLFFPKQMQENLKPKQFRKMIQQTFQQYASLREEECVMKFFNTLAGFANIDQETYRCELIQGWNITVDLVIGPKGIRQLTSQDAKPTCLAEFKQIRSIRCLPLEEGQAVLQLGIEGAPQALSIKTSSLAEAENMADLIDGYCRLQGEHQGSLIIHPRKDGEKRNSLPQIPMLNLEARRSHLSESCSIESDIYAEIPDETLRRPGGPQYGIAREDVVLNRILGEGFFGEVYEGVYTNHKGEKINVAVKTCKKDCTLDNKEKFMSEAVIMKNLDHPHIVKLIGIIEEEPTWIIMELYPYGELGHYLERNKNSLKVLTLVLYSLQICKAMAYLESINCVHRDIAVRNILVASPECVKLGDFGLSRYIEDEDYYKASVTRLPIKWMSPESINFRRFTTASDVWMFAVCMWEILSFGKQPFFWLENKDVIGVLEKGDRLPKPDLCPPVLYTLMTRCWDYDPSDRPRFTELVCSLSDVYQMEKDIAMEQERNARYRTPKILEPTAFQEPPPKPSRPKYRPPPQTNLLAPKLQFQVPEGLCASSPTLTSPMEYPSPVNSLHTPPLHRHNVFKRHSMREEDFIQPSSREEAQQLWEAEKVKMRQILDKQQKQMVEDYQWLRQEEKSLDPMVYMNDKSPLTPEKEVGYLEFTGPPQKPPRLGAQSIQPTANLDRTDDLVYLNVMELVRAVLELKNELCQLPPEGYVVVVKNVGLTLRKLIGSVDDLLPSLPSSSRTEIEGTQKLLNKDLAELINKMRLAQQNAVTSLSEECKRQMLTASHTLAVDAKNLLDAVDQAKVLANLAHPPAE
# PKCg = PKCg (Homo sapiens, UniProt P05129); details: 1 μM; Run 1, Run 2
# c-Kit = c-Kit (Homo sapiens, UniProt P10721); assay: biochemical; details: read-out: % enzyme activity, 1 μM; Run 1, Run 2
# GRK3 = target: T1, GRK3 (Homo sapiens, UniProt P35626); details: 1 μM; Run 1, Run 2
# T1 sequence (P35626 1-688): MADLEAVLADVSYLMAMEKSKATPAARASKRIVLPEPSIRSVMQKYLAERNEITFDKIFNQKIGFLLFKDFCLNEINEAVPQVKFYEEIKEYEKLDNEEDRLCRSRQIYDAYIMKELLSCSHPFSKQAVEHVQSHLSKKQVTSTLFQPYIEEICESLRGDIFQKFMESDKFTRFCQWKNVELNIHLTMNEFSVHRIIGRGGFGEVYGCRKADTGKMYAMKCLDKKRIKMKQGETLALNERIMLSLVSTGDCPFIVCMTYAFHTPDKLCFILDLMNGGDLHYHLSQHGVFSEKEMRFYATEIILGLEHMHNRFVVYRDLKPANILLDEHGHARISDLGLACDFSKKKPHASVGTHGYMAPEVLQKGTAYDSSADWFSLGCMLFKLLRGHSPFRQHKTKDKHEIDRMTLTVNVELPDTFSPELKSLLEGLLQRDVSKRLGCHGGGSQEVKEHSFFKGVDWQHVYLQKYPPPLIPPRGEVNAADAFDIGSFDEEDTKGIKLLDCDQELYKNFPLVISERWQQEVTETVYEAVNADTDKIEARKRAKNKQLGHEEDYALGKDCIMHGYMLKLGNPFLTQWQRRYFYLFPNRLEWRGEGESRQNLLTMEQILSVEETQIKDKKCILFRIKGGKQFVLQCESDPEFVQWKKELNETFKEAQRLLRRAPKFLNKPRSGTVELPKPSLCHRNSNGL
# VRK1 = target: T2, VRK1 (Homo sapiens, UniProt Q99986); details: 1 μM; Run 1, Run 2
# T2 sequence (Q99986 1-396): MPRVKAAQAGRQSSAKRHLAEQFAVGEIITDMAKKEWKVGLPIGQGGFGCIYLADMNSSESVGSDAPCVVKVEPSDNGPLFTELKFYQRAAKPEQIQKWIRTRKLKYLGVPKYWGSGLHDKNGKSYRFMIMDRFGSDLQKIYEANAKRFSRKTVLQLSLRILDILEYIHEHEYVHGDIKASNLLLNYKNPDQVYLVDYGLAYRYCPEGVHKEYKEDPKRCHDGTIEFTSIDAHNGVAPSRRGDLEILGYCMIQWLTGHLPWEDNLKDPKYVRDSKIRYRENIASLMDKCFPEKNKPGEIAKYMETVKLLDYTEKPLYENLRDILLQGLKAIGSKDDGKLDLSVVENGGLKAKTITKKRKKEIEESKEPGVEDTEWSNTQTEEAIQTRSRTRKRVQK
# LKB1 = target: T3, LKB1 (Homo sapiens, UniProt Q15831); details: 1 μM; Run 1, Run 2
# T3 sequence (Q15831 1-433): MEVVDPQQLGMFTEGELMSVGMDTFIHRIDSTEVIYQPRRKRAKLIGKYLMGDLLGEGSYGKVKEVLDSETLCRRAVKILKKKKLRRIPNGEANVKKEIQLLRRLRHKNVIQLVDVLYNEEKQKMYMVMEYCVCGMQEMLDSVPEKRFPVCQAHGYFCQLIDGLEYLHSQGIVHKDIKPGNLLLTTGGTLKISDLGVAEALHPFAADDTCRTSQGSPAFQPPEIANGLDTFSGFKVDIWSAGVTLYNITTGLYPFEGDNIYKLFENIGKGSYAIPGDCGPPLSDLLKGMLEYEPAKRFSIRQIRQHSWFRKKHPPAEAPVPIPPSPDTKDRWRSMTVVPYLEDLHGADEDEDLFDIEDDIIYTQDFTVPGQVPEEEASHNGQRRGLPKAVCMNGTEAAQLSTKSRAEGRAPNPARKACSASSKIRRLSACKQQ
# T3 sequence (Q7RTN6 1-431 partner): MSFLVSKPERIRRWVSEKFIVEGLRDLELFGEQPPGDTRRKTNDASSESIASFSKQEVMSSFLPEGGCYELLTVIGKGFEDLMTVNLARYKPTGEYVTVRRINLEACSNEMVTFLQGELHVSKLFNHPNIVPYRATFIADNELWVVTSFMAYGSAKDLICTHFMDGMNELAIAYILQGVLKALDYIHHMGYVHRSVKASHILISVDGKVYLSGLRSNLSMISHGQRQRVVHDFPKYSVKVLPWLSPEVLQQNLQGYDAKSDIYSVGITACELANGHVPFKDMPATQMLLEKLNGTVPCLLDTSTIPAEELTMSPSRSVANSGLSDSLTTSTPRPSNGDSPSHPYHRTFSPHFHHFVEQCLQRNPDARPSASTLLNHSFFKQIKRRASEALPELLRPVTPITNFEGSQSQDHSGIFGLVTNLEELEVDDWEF
# T3 sequence (Q9Y376 1-341 partner): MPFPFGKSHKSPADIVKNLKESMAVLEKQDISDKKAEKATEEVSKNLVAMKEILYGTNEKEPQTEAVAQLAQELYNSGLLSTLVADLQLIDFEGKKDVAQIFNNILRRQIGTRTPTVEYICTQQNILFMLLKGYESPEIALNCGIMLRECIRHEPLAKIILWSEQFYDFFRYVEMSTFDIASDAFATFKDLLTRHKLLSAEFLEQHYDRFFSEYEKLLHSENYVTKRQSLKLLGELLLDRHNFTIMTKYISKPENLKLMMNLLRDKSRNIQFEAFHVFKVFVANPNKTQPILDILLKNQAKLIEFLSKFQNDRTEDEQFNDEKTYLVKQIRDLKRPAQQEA
# CYP2C8 = target: T4, CYP2C8 (Homo sapiens, UniProt P10632); assay: CYP inhibition assay; format: in vitro ADME; details: human liver microsomes
# T4 construct: tissue Corning 452117; host or cells: pooled human liver microsomes (UltraPool HLM 150, mixed gender)
# T4 sequence (P10632 whole entry): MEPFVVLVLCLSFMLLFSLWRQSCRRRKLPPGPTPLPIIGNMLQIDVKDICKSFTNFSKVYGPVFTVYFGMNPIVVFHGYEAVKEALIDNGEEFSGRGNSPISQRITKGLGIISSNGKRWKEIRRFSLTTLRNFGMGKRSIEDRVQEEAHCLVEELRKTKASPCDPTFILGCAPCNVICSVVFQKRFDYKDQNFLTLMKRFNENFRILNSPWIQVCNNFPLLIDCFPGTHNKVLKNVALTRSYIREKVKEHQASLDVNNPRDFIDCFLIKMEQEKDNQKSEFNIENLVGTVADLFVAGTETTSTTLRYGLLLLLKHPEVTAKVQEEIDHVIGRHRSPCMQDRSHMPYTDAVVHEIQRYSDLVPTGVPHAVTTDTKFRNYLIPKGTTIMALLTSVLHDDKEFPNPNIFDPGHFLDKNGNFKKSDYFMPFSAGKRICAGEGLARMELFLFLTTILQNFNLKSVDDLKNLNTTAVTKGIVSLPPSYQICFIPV
# TRKC = TRKC (Homo sapiens, UniProt Q16288); assay: biochemical; details: read-out: % enzyme activity, 1 μM; Run 1, Run 2
# Chain of TRKC (Q16288 32-839): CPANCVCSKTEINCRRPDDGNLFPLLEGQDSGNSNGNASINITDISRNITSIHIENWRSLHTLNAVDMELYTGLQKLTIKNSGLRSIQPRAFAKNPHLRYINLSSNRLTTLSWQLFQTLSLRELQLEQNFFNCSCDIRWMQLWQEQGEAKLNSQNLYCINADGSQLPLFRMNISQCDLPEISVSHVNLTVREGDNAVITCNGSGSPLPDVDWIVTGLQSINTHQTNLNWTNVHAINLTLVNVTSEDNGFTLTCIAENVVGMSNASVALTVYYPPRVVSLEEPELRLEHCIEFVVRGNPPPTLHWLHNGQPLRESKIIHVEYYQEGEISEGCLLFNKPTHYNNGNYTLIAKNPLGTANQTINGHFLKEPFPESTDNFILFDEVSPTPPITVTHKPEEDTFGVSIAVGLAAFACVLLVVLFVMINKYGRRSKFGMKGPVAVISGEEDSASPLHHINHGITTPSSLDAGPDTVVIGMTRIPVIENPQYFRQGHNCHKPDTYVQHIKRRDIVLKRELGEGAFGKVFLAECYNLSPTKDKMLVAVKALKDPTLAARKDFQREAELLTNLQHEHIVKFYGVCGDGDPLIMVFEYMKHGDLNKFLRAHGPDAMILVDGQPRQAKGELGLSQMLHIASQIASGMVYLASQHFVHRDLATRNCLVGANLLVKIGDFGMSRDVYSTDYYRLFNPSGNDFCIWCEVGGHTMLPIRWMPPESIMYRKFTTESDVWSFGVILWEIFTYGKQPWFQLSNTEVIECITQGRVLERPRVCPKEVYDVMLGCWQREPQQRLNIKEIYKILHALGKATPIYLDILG
# [1] = mouse liver microsomal stability assay; format: in vitro ADME; details: male, CD-1, mouse, microsomes, pH 7.4, mouse liver microsomes, 60 min, 37 °C, read-out: MLM % Remaining at 1h
Structure (SMILES),remaining activity at 1 µM (JAK2),remaining activity at 1 µM (DYRK1B),% enzyme activity at 1 μM (NLK),% enzyme activity (PYK2),% enzyme activity (PKCg),remaining activity at 1 µM (c-Kit),% enzyme activity (GRK3),% enzyme activity (VRK1),% enzyme activity (LKB1),pIC50 (CYP2C8),remaining activity at 1 µM (TRKC),% enzyme activity at 1 μM (BRAF),"remaining at 1 h, 1 μM [1]"
"COc1cc(-c2cncc(-c3ccc(N4CCN(C)CC4)cc3)c2C)cc(F)c1C(N)=O [Compound 26a, 2-Fluoro-6-methoxy-4-(4-methyl-5-(4-(4-methylpiperazin-1-yl)phenyl)pyridin-3-yl)benzamide]",93.5%,40.6%,22% and 20.8%,85.65%,96.27%,74.1%,94.07%,100.69%,79.50%,< 4.30,103%,28.8%,54.6%
"COc1cc(-c2cncc(-c3ccc(N4C[C@@H](C)N(C)[C@@H](C)C4)cc3)c2C)cc(F)c1C(N)=O [Compound 26c, 2-Fluoro-6-methoxy-4-(4-methyl-5-(4-((3R,5S)-3,4,5-trimethylpiperazin-1-yl)phenyl)pyridin-3-yl)benzamide]",88.6%,59.2%,50.4% and 47.7%,85.73%,96.41%,75.8%,95.20%,98.74%,90.86%,< 4.30,99%,41.1% and 40.5%,48.7%
